Holding throughout (format): cell-based
Test [1] deals with BIK. As to the kind of experiment: Western blot analysis of BIK levels in 293T cells. On the procedure: FIG. 2. […] (d) Western blot analysis of BIK levels in indicated cells stably expressing control or ASB11 shRNAs.
Cell extraction was performed with RIPA lysis buffer containing 50 mM Tris (pH 8.0), 0.15 M NaCl, 1% NP40, 1% sodium deoxycholate, 0.1% SDS, 1 mM PMSF, 1 µg/ml aprotinin, and 1 µg/ml leupeptin. Western blot was performed with the standard protocol. For an efficient detection of BIK by Western blot, Tricine-SDS-PAGE was used. Western blot analyses of other proteins were performed with Glycine-SDS-PAGE. Immunoprecipitation was performed and analyzed as previously described. Briefly, cell lysates were incubated with primary antibody for overnight. The Pure Proteome Protein A/G Magnetic Beads (LSKMAGA/G10, EMD Millipore) were then added into cell lysates and incubated for 1.5 h. The beads were washed with RIPA lysis buffer and the bound proteins were analyzed by Western blot.
(In western blotting, separated proteins are transferred to a membrane and probed.)

Test [2] has as its system ASB11. As to the kind of experiment: Western blot analysis of ASB11 protein expression under ER stress. The conditions noted are these: multiple cell lines; 10 μg/ml tunicamycin or 200 nM thapsigargin, 16 h; FIG. 4a. Here is the method:
FIG. 4. ER stress stimulates BIK ubiquitination and degradation through ASB11 and p97. (a) Western blot analysis of BIK and ASB11 levels in 293T cells treated with 10 μg/ml tunicamycin or 200 nM of thapsigargin for 16 h. (b) Western blot analysis of BIK levels in 293T cells treated with 10 μg/ml tunicamycin for 12 h and then with 50 μg/ml cycloheximide for indicated time periods. The relative amounts of BIK are indicated on the bottom. (c, e) Analysis of endogenous (c) or exogenous (e) BIK ubiquitination in 293T cells (c) or 293T derivatives as in FIG. 2d (e) transfected with indicated constructs and treated with tunicamycin. (d) Western blot analysis of 293T derivatives as in FIG. 2d treated with 10 μg/ml tunicamycin for 16 h. (f) Western blot analysis of BIK levels in 293T derivatives co-treated with 10 μg/ml tunicamycin and MG132 for 16 h. (g) Western blot analysis of BIK expression in 293T cells co-treated with tunicamycin and 10 μM CB-5083 for 16 h. […]
(§1) Cell extraction was performed with RIPA lysis buffer containing 50 mM Tris (pH 8.0), 0.15 M NaCl, 1% NP40, 1% sodium deoxycholate, 0.1% SDS, 1 mM PMSF, 1 µg/ml aprotinin, and 1 µg/ml leupeptin. […] Immunoprecipitation was performed and analyzed as previously described. […] The beads were washed with RIPA lysis buffer and the bound proteins were analyzed by Western blot.

Test [3] deals with TNBC cells (Hs578T, MDA-MB157, MDA-MB468). In words: MTT assay for viability of TNBC cells transfected with BIKDD and treated with IRE1α inhibitor. To be noted: combined with BIKDD. Here is the method:
FIG. 7. […] (a, c) MTT assay for the viability of indicated TNBC cells transfected with […] CMV-BIKDD (a) or VISA-BIKDD (c) and treated with 10 or 100 μM STF-083010 for 48 h. CI values are indicated. (b) Western blot analysis of cleaved PARP in indicated TNBC cells transfected with CMV-BIKDD and treated with 100 μM STF-083010 for 36 h. […] Tumor volume were measured at indicated days and plotted. Data are mean±s.d., *P<0.05; ***P<0.001 by two-way ANOVA with Turkey's post test, n=5. Tumors were surgically removed at day 49 and their sizes are shown on the right. (e) Mice orthotopically implanted with Hs578T cells and treated with VISA-BIKDD lipid nanoparticle together with STF-083010 or DMSO starting at day 28 after tumor cell implantation (see Materials and Methods). Tumor volume were measured at indicated days and plotted. Data are mean±s.d., ***P<0.001 by two-way ANOVA with Turkey's post test, n=5. Tumors were surgically removed at day 66 and their sizes are shown on the right.
MDA-MB157 and MDA-MB 468 cells were seeded at a density of 5×10^3 cells and Hs578T cells were at 2×10^3 cells in 96-well plates. Cells were transfected with BIKDD. In the next day, cells were treated with IRE1α inhibitor or DMSO for 48 h and then with 0.4 mg/ml methylthiazolyldiphenyltetrazolium bromide (MTT) (Sigma) for 2 h. Cells were dissolved in DMSO, followed by absorbance measurement at 590 nm. The combination index (CI) was calculated using the equation: CI=CA/IC50A+CB/IC50B. CA and CB represent the concentrations of the two agents for combined treatment. IC50A and IC50B are the IC50 values for each single treatment, which were determined by treating cells with various dosages of each agent followed by MTT assay. (CI<1) indicates a synergistic effect, (CI>1) corresponds to an antagonistic effect, and (CI=1) represents an additive effect.
Background: Tetrazolium assays rely on reduction of a dye to a coloured formazan, in cell work by metabolically active cells.

Test [4] concerns ASB11. In words: Western blot analysis of ASB11 expression in HCT116 cells. The conditions noted are these: p53-dependent manner, FIG. 5b. On the procedure: (§2) FIG. 5. […] (a) RT-qPCR analysis of ASB11 mRNA expression in indicated HCT116 cells treated with indicated dosages of doxorubicin or 5-FU for 24 h. […] (b) Western blot analysis of BIK and ASB11 expression in indicated HCT116 cells treated as in (a). (c) HCT116 p53^+/+ cells stably expressing control or ASB11 shRNA were treated with 10 μM 5-FU for 24 h and then with cycloheximide for indicated time points. Cells were lysed for Western blot analysis of BIK expression and the relative amounts of BIK are indicated on the bottom. The expression levels of ASB11 and BIK in the stable lines are shown on the bottom panel. (d) Western blot analysis of IRE1α expression and RT-qPCR analysis of XBP1 mRNA splicing in indicated HCT116 cells treated with 3 μg/ml doxorubicin or 10 μM 5-FU for 24 h. (e) RT-qPCR analysis of ASB11 and XBPls mRNA expression in HCT116 cells transfected with XBP1s and/or treated with 3 μg/ml doxorubicin for 16 h. […]
as §1

Test [5] concerns BIK. As to the kind of experiment: Western blot analysis of BIK expression in HCT116 cells. The conditions noted are these: p53-dependent manner, FIG. 5b. On the procedure:
as §2, §1

In test [6] the test system is ASB11 mRNA. As to the kind of experiment: RT-qPCR analysis of ASB11 mRNA expression in HCT116 cells treated with genotoxic agents. The conditions noted are these: p53-proficient HCT116 cells, 24 h; FIG. 5a. On the procedure:
(§3) FIG. 5. […] (a) RT-qPCR analysis of ASB11 mRNA expression in indicated HCT116 cells treated with indicated dosages of doxorubicin or 5-FU for 24 h. […] (b) Western blot analysis of BIK and ASB11 expression in indicated HCT116 cells treated as in (a). (c) HCT116 p53^+/+ cells stably expressing control or ASB11 shRNA were treated with 10 μM 5-FU for 24 h and then with cycloheximide for indicated time points. Cells were lysed for Western blot analysis of BIK expression and the relative amounts of BIK are indicated on the bottom. The expression levels of ASB11 and BIK in the stable lines are shown on the bottom panel. (d) Western blot analysis of IRE1α expression and RT-qPCR analysis of XBP1 mRNA splicing in indicated HCT116 cells treated with 3 μg/ml doxorubicin or 10 μM 5-FU for 24 h. (e) RT-qPCR analysis of ASB11 and XBPls mRNA expression in HCT116 cells transfected with XBP1s and/or treated with 3 μg/ml doxorubicin for 16 h. […] (f) Analysis of BIK ubiquitination in HCT116 cells transfected with indicated constructs and/or treated with 3 μg/ml doxorubicin for 16 h. Total mRNA was extracted from cells using TRIZOL reagent (Invitrogen), and equal amounts of RNA were reverse transcribed to cDNA using the iScript™ cDNA Synthesis Kit (Bio-Rad). Quantitative real-time PCR was performed using the Power SYBR Green PCR Master kit (Applied Biosystems). […]

The test system of a further test is IRE1α. In words: Western blot analysis of IRE1α expression in HCT116 cells. The conditions noted are these: 3 μg/ml doxorubicin or 10 μM 5-FU, 24 h, p53-dependent manner, FIG. 5d. On the procedure: as §2, §1
The test system of the next test is XBP1 mRNA splicing. In words: RT-qPCR analysis of XBP1 mRNA splicing in HCT116 cells. The conditions noted are these: 3 μg/ml doxorubicin or 10 μM 5-FU, 24 h, p53-dependent manner, FIG. 5d. Here is the method:
as §3
Background: Real-time PCR tracks product formation cycle by cycle.

In test [7] the test system is ASB11 mRNA. In words: RT-qPCR analysis of ASB11 mRNA in H1299 cells treated with doxorubicin. To be noted: p53-transfected H1299 cells. Here is the method:
Total mRNA was extracted from cells using TRIZOL reagent (Invitrogen), and equal amounts of RNA were reverse transcribed to cDNA using the iScript™ cDNA Synthesis Kit (Bio-Rad). Quantitative real-time PCR was performed using the Power SYBR Green PCR Master kit (Applied Biosystems). Amplification was performed on an ABI 7500 Fast Real-Time PCR system and GAPDH was used as an internal control.

Test [8] deals with BIK. As to the kind of experiment: Cycloheximide-chase analysis of BIK protein stability in HCT116 p53+/+ cells. To be noted: p53-proficient HCT116 cells, 10 μM 5-FU 24 h then cycloheximide; FIG. 5c. On the procedure:
FIG. 5. […] (a) RT-qPCR analysis of ASB11 mRNA expression in indicated HCT116 cells treated with indicated dosages of doxorubicin or 5-FU for 24 h. […] (b) Western blot analysis of BIK and ASB11 expression in indicated HCT116 cells treated as in (a). (c) HCT116 p53^+/+ cells stably expressing control or ASB11 shRNA were treated with 10 μM 5-FU for 24 h and then with cycloheximide for indicated time points. Cells were lysed for Western blot analysis of BIK expression and the relative amounts of BIK are indicated on the bottom. The expression levels of ASB11 and BIK in the stable lines are shown on the bottom panel. (d) Western blot analysis of IRE1α expression and RT-qPCR analysis of XBP1 mRNA splicing in indicated HCT116 cells treated with 3 μg/ml doxorubicin or 10 μM 5-FU for 24 h. (e) RT-qPCR analysis of ASB11 and XBPls mRNA expression in HCT116 cells transfected with XBP1s and/or treated with 3 μg/ml doxorubicin for 16 h. […] (f) Analysis of BIK ubiquitination in HCT116 cells transfected with indicated constructs and/or treated with 3 μg/ml doxorubicin for 16 h.

Peptide text beside a SMILES is read from it. * marks the point of attachment. Cbz = O=C(OCc1ccccc1)*

Data on 6 molecules can be found in US20200215153A1, “CANCER TREATMENT AND/OR PREVENTION THROUGH REGULATION OF UBIQUITINATION” (Academia Sinica, priority 2018, published 2020).

With `Cc1cc2c(C(N)=O)cccc2n1-c1nc2c(c(NCc3ccccc3)n1)COCC2` [CB-5083], the “effect on BIK downregulation induced by ER stress or ASB11 overexpression” value in the test on BIK [1] (293T cells, 10 μM CB-5083, 16 h, co-treated with tunicamycin, FIG. 4g) is “abrogated”.
In the case of `C/C=C(/C)C(=O)O[C@H]1C(C)=C2[C@H]([C@@H]1OC(=O)CCCCCCC)[C@@](C)(OC(C)=O)C[C@H](OC(=O)CCC)[C@@]1(O)[C@H]2OC(=O)[C@@]1(C)O` [thapsigargin], in the test on BIK [1] (multiple cell lines, 10 μg/ml tunicamycin or 200 nM thapsigargin, 16 h, FIG. 4a), the BIK protein level entry was “reduced”. For the same molecule, the ASB11 protein expression entry with ASB11 [2] is given as “elevated”.
On to `Cc1cc(=O)oc2c(C=O)c(O)ccc12` [4μ8C, 7-Hydroxy-4-methyl-2-oxo-2H-1-benzopyran-8-carboxaldehyde], for which, in test [3], the “killing effect of BIKDD on TNBC cells on combined administration” value was “enhanced”.
For `CC(C)C[C@@H](C=O)NC(=O)[C@H](CC(C)C)NC(=O)[C@H](CC(C)C)NC(=O)OCc1ccccc1` [MG132] (Cbz-Leu-Leu-Leu-aldehyde), the “effect on the decrease of BIK protein level caused by ASB11 overexpression” value with BIK [1] (293T cells transfected with ASB11, FIG. 2b) is on record as “reversed”.
With `COc1cccc2c1C(=O)c1c(O)c3c(c(O)c1C2=O)C[C@@](O)(C(=O)CO)C[C@@H]3O[C@H]1C[C@H](N)[C@H](O)[C@H](C)O1` [doxorubicin], in the test on ASB11 [4], the ASB11 protein level result was “downregulated”. In addition, the BIK protein level entry in the test on BIK [5] is on record as “upregulated”. Further, the “ASB11 mRNA level” value in the test on ASB11 mRNA [6] is listed as “reduced”. Also, in the test on IRE1α, the IRE1a level result was “reduced”. In addition, in the test with XBP1 mRNA splicing, the “XBP1 mRNA splicing” value was “reduced”. Also, in the test with ASB11 mRNA [7], the “ASB11 mRNA” value is given as “downregulated”.
Turning to `O=c1[nH]cc(F)c(=O)[nH]1` [5-FU, 5-fluorouracil], in the test with BIK [8], the BIK protein stability entry is recorded as “increased”. Further, the ASB11 protein level entry in the test with ASB11 [4] is reported as “downregulated”. Also, in the test with BIK [5], the BIK protein level result is “upregulated”. Moreover, in the test with ASB11 mRNA [6], the “ASB11 mRNA level” value was “reduced”. Also, the IRE1a level entry with IRE1α is reported as “reduced”. Also, in the test with XBP1 mRNA splicing, the “XBP1 mRNA splicing” value is given as “reduced”.
